Measurements published in patent publication US20120202794A1 (priority 2011, published 2012).

Assays:
HCV Replicon 1b = assay: HCV inhibition assay, HCV replicon 1b (Clone A or ET-lunet cells; RT-PCR or luciferase reporter); assay type: cell-based; conditions: Hepatitis C virus, 96 h, HCV replicon 1b; 4 days incubation; read-out: Replicon 1b potency EC90
Outline: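 Clone A (1500/well) or ET-lunet (3000/well) replicon cells treated with serially diluted compounds (0.5% DMSO, no G418) for 4 days at 37 °C. HCV RNA measured by one-step RT-PCR normalized to rRNA (ΔΔCt) or by luciferase luminescence versus DMSO controls; EC50/EC90 by curve fitting.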

[1] = Cell cytotoxicity assay (MTS), CC90 as reported in Table 1, cell line not stated; assay type: cell-based; conditions: human; MTS assay; 8 days incubation; cell line not given
Outline: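 Compounds, serially diluted from 100 μM, were incubated 8 days at 37° C with Huh7, HepG2 or BxPC3 (2×10^3 cells/well) or CEM (5×10^3 cells/well). Viability was read by MTS, 2 h, absorbance 490 nm. CC90 (90% inhibition) was taken against untreated cells.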

SMILES	EC90 (HCV Replicon 1b) [µM]	CC90 at 8 days [1] [µM]
CC(C)C[C@H]1C(=O)N[C@@H](C2CCCC2)CN1C(=O)[C@@H]1C[C@H]1c1ccc(F)cc1F [Compound 325, (3S,6S)-6-cyclopentyl-4-((1R,2R)-2-(2,4-difluorophenyl)cyclopropanecarbonyl)-3-isobutylpiperazin-2-one]	> 10	> 10
CC(C)C[C@H]1C(=O)N[C@@H](C2CCCCC2)CN1C(=O)[C@@H]1C[C@H]1c1ccc(F)cc1F [Compound 326, (3S,6S)-6-cyclohexyl-4-((1R,2R)-2-(2,4-difluorophenyl)cyclopropanecarbonyl)-3-isobutylpiperazin-2-one]	> 10	> 10
CC(C)C[C@H]1C(=O)N[C@@H](c2ccccc2)CN1C(=O)[C@@H]1C[C@H]1c1ccc(F)cc1F [Compound 327, (3S,6S)-4-[(1R,2R)-2-(2,4-difluoro-phenyl)-cyclopropanecarbonyl]-3-isobutyl-6-phenyl-piperazin-2-one]	7.21	> 10
CC(C)C[C@H]1C(=O)N[C@@H](C2CCCCC2)CN1C(=O)[C@@H]1C[C@H]1c1ccc(C(C)(C)C)cc1 [Compound 328, (3S,6S)-4-((1R,2R)-2-(4-(tert-butyl)phenyl)cyclopropanecarbonyl)-6-cyclohexyl-3-isobutylpiperazin-2-one]	2.43	> 10
CC(C)C[C@H]1CN(C(=O)[C@@H]2C[C@H]2c2ccc(Br)cc2)[C@@H](CC(C)C)C(=O)N1 [Compound 329, (3S,6S)-4-((1R,2R)-2-(4-bromophenyl)cyclopropanecarbonyl)-3,6-diisobutylpiperazin-2-one]	0.52	> 10
CCC[C@H]1CN(C(=O)[C@@H]2C[C@H]2c2ccc(Br)cc2)[C@@H](CC(C)C)C(=O)N1 [Compound 331, (3S,6S)-4-[(1R,2R)-2-(4-Bromo-phenyl)-cyclopropanecarbonyl]-3-isobutyl-6-propyl-piperazin-2-one]	0.56	> 10
CC(C)C[C@H]1C(=O)N[C@@H](c2ccccc2)CN1C(=O)[C@@H]1C[C@H]1c1ccc(Br)cc1 [Compound 333, (3S,6S)-4-[(1R,2R)-2-(4-bromo-phenyl)-cyclopropanecarbonyl]-3-isobutyl-6-phenyl-piperazin-2-one]	0.646	> 10
CCC[C@H]1CN(C(=O)[C@@H]2C[C@H]2c2ccc(C(C)(C)C)cc2)[C@@H](CC(C)C)C(=O)N1 [Compound 334, (3S,6S)-4-((1R,2R)-2-(4-(tert-butyl)phenyl)cyclopropanecarbonyl)-3-isobutyl-6-propyl-pylpiperazin-2-one]	0.9	> 10
O=C1N[C@@H](c2ccccc2)CN(C(=O)c2cc(-c3ccc(F)cc3)on2)[C@H]1CC1CC1 [Compound 336, (3S,6S)-3-(cyclopropylmethyl)-4-(5-(4-fluorophenyl)isoxazole-3-carbonyl)-6-phenylpiperazin-2-one]	0.36	> 10
O=C1N[C@@H](c2ccccc2)CN(C(=O)[C@@H]2C[C@H]2c2ccccc2)[C@H]1CC1CC1 [Compound 338, (3S,6S)-3-(cyclopropylmethyl)-6-phenyl-4-((1R,2R)-2-phenylcyclopropanecarbonyl)-piperazin-2-one]	5.07	> 10
CC[C@@H](C)[C@H]1C(=O)N[C@@H](c2ccccc2)CN1C(=O)c1cc(-c2ccc(F)cc2)on1 [Compound 339, (3S,6S)-3-((R)-sec-butyl)-4-(5-(4-fluorophenyl)isoxazole-3-carbonyl)-6-phenylpiperazin-2-one]	0.8	> 10
CC[C@@H](C)[C@H]1C(=O)N[C@@H](c2ccccc2)CN1C(=O)[C@@H]1C[C@H]1c1ccccc1 [Compound 341, (3S,6S)-3-((R)-sec-butyl)-6-phenyl-4-((1R,2R)-2-phenylcyclopropanecarbonyl)-piperazin-2-one]	2.54	> 10
CC(C)(C)C[C@H]1C(=O)N[C@@H](c2ccccc2)CN1C(=O)c1cc(-c2ccc(F)cc2)on1 [Compound 342, (3S,6S)-4-(5-(4-fluorophenyl)isoxazole-3-carbonyl)-3-neopentyl-6-phenylpiperazin-2-one]	0.2	> 10
CC(C)(C)C[C@H]1C(=O)N[C@@H](c2ccccc2)CN1C(=O)[C@@H]1C[C@H]1c1ccccc1 [Compound 344, (3S,6S)-3-neopentyl-6-phenyl-4-((1R,2R)-2-phenylcyclopropanecarbonyl)piperazin-2-one]	1	> 10
CC(C)C[C@H]1C(=O)N[C@@H](c2ccc(F)cc2)CN1C(=O)c1cc(-c2ccc(F)cc2)on1 [Compound 345, (3S,6S)-6-(4-fluorophenyl)-4-(5-(4-fluorophenyl)isoxazole-3-carbonyl)-3-isobutyl-piperazin-2-one]	0.65	> 10
CC(C)C[C@H]1C(=O)N[C@@H](c2ccc(F)cc2)CN1C(=O)[C@@H]1C[C@H]1c1ccccc1 [Compound 347, (3S,6S)-6-(4-fluorophenyl)-3-isobutyl-4-((1R,2R)-2-phenylcyclopropanecarbonyl)-piperazin-2-one]	2.05	> 10
Cc1ccc([C@H]2CN(C(=O)c3cc(-c4ccc(F)cc4)on3)[C@@H](CC(C)C)C(=O)N2)cc1 [Compound 348, (3S,6S)-4-(5-(4-fluorophenyl)isoxazole-3-carbonyl)-3-isobutyl-6-(p-tolyl)piperazin-2-one]	1.8	> 10
CC(C)C[C@H]1CN(C(=O)c2cn(-c3ccc(Cl)cc3)nn2)[C@@H](CC(C)C)C(=O)N1 [Compound 350, (3S,6S)-4-(1-(4-chlorophenyl)-1H-1,2,3-triazole-4-carbonyl)-3,6-diisobutylpiperazin-2-one]	1.96	> 10
CC(C)C[C@H]1CN(C(=O)c2cn(-c3ccc(F)cc3)nn2)[C@@H](CC(C)C)C(=O)N1 [Compound 351, (3S,6S)-4-(1-(4-fluorophenyl)-1H-1,2,3-triazole-4-carbonyl)-3,6-diisobutylpiperazin-2-one]	1.63	> 10
CC(C)C[C@H]1C(=O)N[C@@H](c2ccccc2Cl)CN1C(=O)c1cc(-c2ccc(F)cc2)on1 [Compound 352, (3S,6S)-6-(2-chlorophenyl)-4-(5-(4-fluorophenyl)isoxazole-3-carbonyl)-3-isobutyl-piperazin-2-one]	0.21	> 10
CC(C)C[C@H]1C(=O)N[C@@H](c2ccccc2Cl)CN1C(=O)[C@@H]1C[C@H]1c1ccccc1 [Compound 354, (3S,6S)-6-(2-chlorophenyl)-3-isobutyl-4-((1R,2R)-2-phenylcyclopropanecarbonyl)-piperazin-2-one]	1.85	> 10
CC(C)C[C@H]1C(=O)N[C@@H](c2ccccc2F)CN1C(=O)[C@@H]1C[C@H]1c1ccccc1 [Compound 357, (3S,6S)-6-(2-fluorophenyl)-3-isobutyl-4-((1R,2R)-2-phenylcyclopropanecarbonyl)-piperazin-2-one]	0.52	> 10
CC(C)C[C@H]1C(=O)N[C@@H](c2ccc(Cl)cc2)CN1C(=O)c1cc(-c2ccc(F)cc2)on1 [Compound 358, (3S,6S)-6-(4-chlorophenyl)-4-(5-(4-fluorophenyl)isoxazole-3-carbonyl)-3-isobutyl-piperazin-2-one]	1.53	> 10
CC(C)C[C@H]1C(=O)N[C@@H](c2ccc(Cl)cc2)CN1C(=O)[C@@H]1C[C@H]1c1ccccc1 [Compound 360, (3S,6S)-6-(4-chlorophenyl)-3-isobutyl-4-((1R,2R)-2-phenylcyclopropanecarbonyl)-piperazin-2-one]	3.64	> 10
Cc1ccccc1[C@H]1CN(C(=O)c2cc(-c3ccc(F)cc3)on2)[C@@H](CC(C)C)C(=O)N1 [Compound 361, (3S,6S)-4-(5-(4-fluorophenyl)isoxazole-3-carbonyl)-3-isobutyl-6-(o-tolyl)piperazin-2-one]	1.42	> 10
Cc1ccccc1[C@H]1CN(C(=O)[C@@H]2C[C@H]2c2ccccc2)[C@@H](CC(C)C)C(=O)N1 [Compound 363, (3S,6S)-3-isobutyl-4-((1R,2R)-2-phenylcyclopropanecarbonyl)-6-(o-tolyl)piperazin-2-one]	2.07	> 10
CC(C)C[C@H]1C(=O)N[C@@H](c2ccc(C(F)(F)F)cc2)CN1C(=O)[C@@H]1C[C@H]1c1ccccc1 [Compound 364, (3S,6S)-3-isobutyl-4-((1R,2R)-2-phenylcyclopropanecarbonyl)-6-(4-(trifluoro-methyl)phenyl)piperazin-2-one]	> 10	> 10
CC(C)C[C@H]1C(=O)N[C@@H](c2ccc(C(F)(F)F)cc2)CN1C(=O)c1cc(-c2ccc(F)cc2)on1 [Compound 366, (3S,6S)-4-(5-(4-fluorophenyl)isoxazole-3-carbonyl)-3-isobutyl-6-(4-(trifluoromethyl)-phenyl)piperazin-2-one]	6	> 10
CC(C)C[C@H]1C(=O)N[C@@H](c2cccc(F)c2)CN1C(=O)c1cc(-c2ccc(F)cc2)on1 [Compound 367, (3S,6S)-6-(3-fluorophenyl)-4-(5-(4-fluorophenyl)isoxazole-3-carbonyl)-3-isobutylpiperazin-2-one]	0.27	> 10
CC(C)C[C@H]1C(=O)N[C@@H](c2cccc(F)c2)CN1C(=O)[C@@H]1C[C@H]1c1ccccc1 [Compound 369, (3S,6S)-6-(3-fluorophenyl)-3-isobutyl-4-((1R,2R)-2-phenylcyclopropanecarbonyl)-piperazin-2-one]	1.63	> 10
